# Source: ChEMBL document CHEMBL5338769, “Discovery of Norisoboldine Analogue III11 as a Novel and Potent Aryl Hydrocarbon Receptor Agonist for the Treatment of Ulcerative Colitis” (J Med Chem, 2023)
# pIC50: −log10 of the molar value. Calls of active or inactive are those of the source. The rule behind the calls is not given here.
# How the values were obtained:
# [1] = AUC(0 to infinity) in Sprague-Dawley rat at 3 mg/kg, iv measured upto 1440 min by LC-MS/MS analysis; format: ADME, organism-based; design: dose 3 mg/kg, time < 1440 min, route iv; settings: in vivo
# [2] = Induction of cell differentiation in C57BL/6 mouse naive regulatory T cells assessed as increase in cell frequency at 1 uM incubated for 72 hrs by flow cytometric analysis (reference value: 24.9%); format: functional
# [3] = system: EL4; experiment: Cytotoxicity against mouse EL4 cells assessed as reduction of cell vaibility at 10 uM incubated for 72 hrs by MTT assay; format: functional, cell-based
# [4] = system: EL4; experiment: Cytotoxicity against mouse EL4 cells assessed as inhibition of cell proliferation incubated for 72 hrs by MTT assay; format: functional, cell-based; settings: EL4, 72 h
# [5] = target: T1, Aryl hydrocarbon receptor (Mus musculus, UniProt P30561); experiment: Induction of AhR nuclear translocation in C57BL/6 mouse naive T cells at 1 to 10 uM incubated for 48 hrs by immunofluorescence based inverted microscopic analysis; settings: t cell, dose 1-10 µM
# T1 sequence (P30561 whole entry): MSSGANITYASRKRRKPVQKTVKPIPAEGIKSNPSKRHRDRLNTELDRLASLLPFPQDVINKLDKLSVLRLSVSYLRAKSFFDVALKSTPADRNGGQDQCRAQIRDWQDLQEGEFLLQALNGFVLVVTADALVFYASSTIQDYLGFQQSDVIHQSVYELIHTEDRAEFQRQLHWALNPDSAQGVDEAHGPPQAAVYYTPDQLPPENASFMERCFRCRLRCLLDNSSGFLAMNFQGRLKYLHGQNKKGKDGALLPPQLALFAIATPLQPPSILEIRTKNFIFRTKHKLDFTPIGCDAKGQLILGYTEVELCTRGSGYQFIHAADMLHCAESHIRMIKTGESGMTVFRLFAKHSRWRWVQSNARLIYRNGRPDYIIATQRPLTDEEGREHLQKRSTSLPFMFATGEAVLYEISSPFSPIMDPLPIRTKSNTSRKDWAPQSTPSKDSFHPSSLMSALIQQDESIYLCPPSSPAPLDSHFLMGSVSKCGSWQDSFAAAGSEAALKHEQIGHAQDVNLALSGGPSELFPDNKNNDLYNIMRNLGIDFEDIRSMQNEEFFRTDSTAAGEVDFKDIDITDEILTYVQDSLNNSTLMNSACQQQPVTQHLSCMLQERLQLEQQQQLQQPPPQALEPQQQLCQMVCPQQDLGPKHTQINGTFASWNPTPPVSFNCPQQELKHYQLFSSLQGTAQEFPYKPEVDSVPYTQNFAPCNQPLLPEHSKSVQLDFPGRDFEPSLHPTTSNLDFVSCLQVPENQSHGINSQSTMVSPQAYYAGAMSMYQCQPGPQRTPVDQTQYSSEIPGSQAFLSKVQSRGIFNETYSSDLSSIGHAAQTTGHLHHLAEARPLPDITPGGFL
# [6] = target: T1, Aryl hydrocarbon receptor; experiment: Activation of AhR transcription in C57BL/6 mouse naive T cells assessed as increase in CYP1B1 mRNA expression at 1 to 3 uM by qRT-PCR analysis; format: cell-based; settings: t cell, dose 1-3 µM
# [7] = system: Mus musculus; experiment: Anti-colitis activity against DSS-induced ulcerative colitis C57BL/6 mouse model assessed as decrease in colon MPO activity at 10 to 20 mg/kg, po administered once a day for 10 days; format: functional, organism-based; settings: dose 10-20 mg/kg, time 10.0 day
# [8] = system: Mus musculus; experiment: Anti-colitis activity against DSS-induced ulcerative colitis C57BL/6 mouse model assessed as increase in IL-10 mRNA level at 20 mg/kg, po administered once a day for 10 days by qRT-PCR analysis; format: functional, organism-based; settings: time 10.0 day
# [9] = Protein binding in rat plasma at 21.67 ug/ml of total concentration measured after 12 hrs by ultrafiltration based HPLC analysis; format: ADME, cell-free; settings: at 21.67 µg/mL, read-out: PPB (converted)
# [10] = system: Mus musculus; experiment: Anti-colitis activity against DSS-induced ulcerative colitis C57BL/6 mouse model assessed as increase in IL-10 mRNA level by measuring fold change at 10 mg/kg, po administered once a day for 10 days by qRT-PCR analysis; format: functional; settings: time 10 day
# [11] = MRT in Sprague-Dawley rat at 30 mg/kg, po measured upto 1440 min by LC-MS/MS analysis; format: ADME, organism-based; settings: in vivo
# [12] = Half-life in Sprague-Dawley rat at 3 mg/kg, iv measured upto 1440 min by LC-MS/MS analysis; format: ADME, organism-based; settings: in vivo
# [13] = Half-life in Sprague-Dawley rat at 30 mg/kg, po measured upto 1440 min by LC-MS/MS analysis; format: ADME, organism-based; settings: in vivo
# [14] = Induction of cell differentiation in C57BL/6 mouse naive regulatory T cells assessed as increase in […] mRNA level by measuring fold change at 3 uM incubated for 72 hrs by qRT-PCR analysis; format: functional
# [15] = target: T1, Aryl hydrocarbon receptor; experiment: Activation of AhR transcription in C57BL/6 mouse naive T cells assessed as increase in CYP1A1 mRNA expression by measuring fold change at 3 uM by qRT-PCR analysis relative to control; format: cell-based; settings: T-cell, read-out: FC
# [16] = target: T1, Aryl hydrocarbon receptor; experiment: Activation of AhR transcription in C57BL/6 mouse naive T cells assessed as increase in AhRR mRNA expression at 1 to 3 uM by qRT-PCR analysis; format: cell-based; settings: t cell, dose 1-3 µM
# [17] = system: Mus musculus; experiment: Anti-colitis activity against DSS-induced ulcerative colitis C57BL/6 mouse model assessed as amelioration of epithelial change score by measuring erosion in colon at 10 to 20 mg/kg, po administered once a day for 10 days by H&E staining based histopathological analysis; format: functional, organism-based; settings: dose 10-20 mg/kg, time 10.0 day
# [18] = system: Mus musculus; experiment: Anti-colitis activity against DSS-induced ulcerative colitis C57BL/6 mouse model assessed as increase in Foxp3 mRNA level by measuring fold change at 10 mg/kg, po administered once a day for 10 days by qRT-PCR analysis; format: functional; settings: time 10 day
# [19] = system: Mus musculus; experiment: Anti-colitis activity against DSS-induced ulcerative colitis C57BL/6 mouse model assessed as amelioration of epithelial change score by measuring hyperplasia in colon at 10 to 20 mg/kg, po administered once a day for 10 days by H&E staining based histopathological analysis; format: functional, organism-based; settings: dose 10-20 mg/kg, time 10.0 day
# [20] = Induction of cell differentiation in C57BL/6 mouse naive regulatory T cells assessed as increase in cell frequency at 10 uM incubated for 72 hrs by flow cytometric analysis (reference value: 24.9%); format: functional
# [21] = Unbound drug concentration in rat plasma at 48.02 ug/ml of total concentration measured after 12 hrs by ultrafiltration based HPLC analysis; format: ADME, cell-free; settings: dose 48.02 µg/ml
# [22] = target: T1, Aryl hydrocarbon receptor; experiment: Binding affinity to AhR in mouse EL4 cells assessed as thermal stabilization at 3 uM at 37 to 67 degreeC incubated for 24 hrs thermal shift assay based Western blot analysis; format: cell-based; settings: el4, 24 h
# [23] = Protein binding in rat plasma at 37.38 ug/ml of total concentration measured after 12 hrs by ultrafiltration based HPLC analysis; format: ADME, cell-free; settings: at 37.38 µg/mL, read-out: PPB (converted)
# [24] = Unbound drug concentration in rat plasma at 10.74 ug/ml of total concentration measured after 12 hrs by ultrafiltration based HPLC analysis; format: ADME, cell-free; settings: dose 10.74 µg/ml
# [25] = Unbound drug concentration in rat plasma at 21.67 ug/ml of total concentration measured after 12 hrs by ultrafiltration based HPLC analysis; format: ADME, cell-free; settings: dose 21.67 µg/ml
smiles,measurement,setting,value
COc1cc2c3c(c1)-c1ccc(O)cc1CC3NCC2 (stereo not given),AUC(0-inf),[1],974 ng·h/mL
same,Activity,[2],29.9%
same,Activity,[3],inactive
same,pIC50,[4],4.55
same,Activity,[5],Active
same,Activity,[6],Active
same,Activity,[7],Active
same,Activity,[8],Active
same,"fraction unbound at 12 h, 21.67 ug/ml",[9],0.149
same,fold change (FC),[10],1.26
same,MRT,[11],7.27 h
same,half-life,[12],134 min
same,half-life,[13],161 min
same,fold change (FC),[14],1.4
same,fold induction at 3 µM,[15],4.6
same,Activity,[16],Active
same,Activity,[17],Active
same,fold change (FC),[18],1.88
same,Activity,[19],Active
same,Activity,[20],41.7%
same,Cp(f),[21],6.67 µg/mL
same,Activity,[22],Active
same,"fraction unbound at 12 h, 37.38 ug/ml",[23],0.491
same,Cp(f),[24],1.44 µg/mL
same,Cp(f),[25],3.23 µg/mL
